Test results reported in patent US10851372B2, “Exosome packaging of nucleic acids” (University of Ottawa, priority 2015, dated 2020).

Assays:
[1] = Effect of drugs on exosome number and miR-451 enrichment in exosomes; type: cell-based; details: treatment of exosome-producing cells
Method: A variety of cellular factors which may affect nucleic acid construct packaging in exosomes using methods as described herein were studied. Specifically, effects of over-expression of mutant Ras, mutant Myc, wild-type Ago2, and siRNA depletion of Translin were studied. […] The effect of several drugs was also tested, such as mTOR inhibitors and lysosomal/autophagy inhibitors which are clinically used. […] Lysosomal/autophagy inhibitors tested include Bafilomycin A1, concanamycin, and NAADP-AM.

[2] = test system: mouse embryonic fibroblast cells; assay: Exosomal enrichment of synthetic RNA constructs mimicking pre-miR-451 processing stages (RT-qPCR); type: cell-based; details: synthetic RNA transfected, FIG. 9(E)
Method: Synthetic RNA constructs mimicking WT pre-miR-451 at various processing stages were tested for exosomal enrichment. Constructs were transfected into cells, and exosome enrichment was measured by RT-qPCR after exosome purification by differential centrifugation. miR-451 derived mature siRNA was normalized to levels of let-7a and miR-16 in exosomes vs. cells. Constructs tested include WT pre-mIR-451 construct following Drosha processing (A), an Ago2-cleaved version of the construct (B), and a mature 22 nt miR-451 (post exonuclease activity, having a 5′ targeting portion including a portion of the loop region) (C). For comparison, a standard 21 nt dsRNA siRNA with 3′ overhangs (D) was also tested. Exosomal enrichment results are shown in (E);
Constructs were accordingly designed which mimic WT pre-miR-451 at various processing stages, and tested for exosomal enrichment. Constructs tested are graphically depicted in FIG. 9. […]
RNAs corresponding to 42 nt pre-miR-451 with an inserted GFP siRNA, or the same construct up to the Ago2 cleavage site, or the fully mature form of miR-451 produced GFP siRNA (single-stranded 22 nt RNA), or double-stranded GFP siRNA with 2 nt 3′ overhangs were synthesized by IDT. […] Two days later exosomes were purified and levels of mature GFP siRNA in exosomes was quantified by RT-qPCR.

[3] = test system: exosomes from multiple cell types and sources; details: plasma, serum, mast cells, glioblastoma, B cells, cardiac progenitor cells, MSC; cited from earlier work
MDA-MB-231 = assay: Exosomal enrichment of endogenous miRNAs, RT-qPCR in exosomes vs exosome-producing cells; type: cell-based, human
From the text: Exosomes from breast epithelial cell line (MDA-MB-231) or mouse embryonic fibroblasts (MEF) were purified and multiple techniques were used to confirm the identity and purity of exosome preparations (see FIG. 1A-D). Dynamic light scattering and Nanosight particle tracking was used to ensure that exosomes purified were highly pure populations of particles with diameter of 100 nm, as expected for exosomes. […] RNA was isolated from these exosomes and the cells that produced them, and RT-qPCR was used to characterize the relative abundance of miRNAs.
(§1) Firstly, enrichment of endogenously expressed miR-451 in exosomes was compared to other endogenously expressed microRNAs (miR-16, let-7a).
(§2) Exosomes were enriched by differential centrifugation as previously described (Thery, 2006, Curr Protoc Cell Biol, Chapter 3, Unit 3 22). Briefly, MEF or MDA-MB-231 cells were cultured in media containing FBS depleted of exosomes by centrifugation at 100 000 g for 16 h (Thery, 2006, Curr Protoc Cell Biol, Chapter 3, Unit 3 22). To purify exosomes supernatant from cell cultures was centrifuged at 400 g (7 min), 2000 g (10 min) and 10 000 g (30 min, SW32 rotor). At each step the supernatant was recovered. After centrifugation at 100 000 g (1 h 10 min, SW32 rotor) the supernatant was removed and the pellet was resuspended. The pellet was washed in PBS by a final centrifugation at 100 000 g (20 min, TLA100.3 rotor). The exosome-enriched pellet was re-suspended in PBS for further analyses.
(§3) RT-qPCR was performed with the MiScript II Reverse Transcriptase system (Qiagen) and GoTaq® qPCR Master Mix (Promega A6002) using primers allowing amplification of the DNA produced in the reverse transcriptase step. Results were normalized to the ubiquitous miRNA let-7a and miR-16.

Primary MSC = assay: Exosomal enrichment of endogenous miR-451, RT-qPCR in exosomes vs exosome-producing cells; type: cell-based, human; details: exosome-depleted or serum-free media
Method: as §1, §3
(§4) RT-qPCR was performed with (Promega A6002) or Quantitect qPCR master mix (Qiagen) using primers allowing amplification of the DNA produced in the reverse transcriptase step using the following primers mir-451: […] (SEQ ID NO: 14), let-7a: […] (SEQ ID NO: 15), mir-16: […] (SEQ ID NO: 16).

ESC = assay: as above; type: cell-based, human
Method: as §1, §3, §4

MSC Line = assay: as above; type: cell-based; details: exosome-depleted or serum-free media
Method: as §1, §3, §4

C8D1A = assay: as above; type: cell-based, mouse; details: exosome-depleted or serum-free media
Method: as §1, §3, §4

JAWSII = assay: as above; type: cell-based, mouse; details: exosome-depleted or serum-free media
Method: as §1, §3, §4

BV2 = assay: as above; type: cell-based, mouse; details: exosome-depleted or serum-free media
Method: as §1, §3, §4

Macrophage = assay: as above; type: cell-based, mouse; details: exosome-depleted or serum-free media
Method: as §1, §3, §4

C8D30 = assay: as above; type: cell-based, mouse; details: exosome-depleted or serum-free media
Method: as §1, §3, §4

N2A = assay: as above; type: cell-based, mouse; details: exosome-depleted or serum-free media
Method: as §1, §3, §4

C8S = assay: as above; type: cell-based, mouse; details: exosome-depleted or serum-free media
Method: as §1, §3, §4

NSC34 = assay: as above; type: cell-based, mouse; details: exosome-depleted or serum-free media
Method: as §1, §3, §4

MN1 = assay: as above; type: cell-based, mouse; details: exosome-depleted or serum-free media
Method: as §1, §3, §4

MEF = assay: as above; type: cell-based, mouse
Method: as §1, §2
RT-qPCR was performed with the MiScript II Reverse Transcriptase system (Qiagen) and GoTaq® qPCR Master Mix (Promega A6002) using primers allowing amplification of the DNA produced in the reverse transcriptase step. […]
RT-qPCR was performed with (Promega A6002) or Quantitect qPCR master mix (Qiagen) using primers allowing amplification of the DNA produced in the reverse transcriptase step using the following primers mir-451: […] […]

MDA-MB-231 cells = assay: Exosomal enrichment of miRNA expressed from transfected pre-miR-451 structural mimic plasmids (RT-qPCR); type: cell-based, human; details: FIG. 3B
Method: (§5) (C) The ratio of endogenous miRNAs (let-7a, miR-106, miR-155) was measured in exosomes and exosome-producing cells (MEF, mouse embryonic fibroblasts) by RT-qPCR. y-axis is log 10. miR-451 is not endogenously expressed in these cells.
(§6) Plasmids expressing pre-miR-451, or pre-miR-451 structural mimics including the sequences of other miRNA, were transfected into the two cell types. Expressing miR-106 or miR-155 in the pre-miR-451 structural mimic caused them to be enriched up to 39-fold in exosomes produced by either MEF or breast cancer cells (see FIG. 3B,D). […] In MEF cells, endogenous miR-451 was undetectable in either cells or exosomes (see FIG. 3C).
(§7) Cells were transfected with plasmids using Lipofectamine 2000 according to the manufacturer's instructions. After four hours cells were washed in PBS and incubated with DMEM containing 10% FBS depleted of exosomes by ultracentrifugation according to Thery et al. (2006). After 24 h media was harvested and exosomes were purified by differential ultracentrifugation. RNA was purified from exosomes and exosome-producing cells using Trizol according to the manufacturer's instructions.
Exosomes were enriched by differential centrifugation as previously described (Thery, 2006, Curr Protoc Cell Biol, Chapter 3, Unit 3 22). […]

MEF cells = assay: as above; type: cell-based, mouse; details: for Effect of pre-miR-451 backbone on levels of inserted miRNA in cells: MEF cells transfected with plasmids, FIG. 4
Method: as §5
MEF cells were transfected with pre-miR-451 expressing plasmids (“technology”) containing miR-199, miR-155 or miR-106, and exosomes were purified and RT-qPCR was performed on exosomes and cells.
as §6, §7
as §2, with “The exosome-enriched pellet was re-suspended in PBS for further analyses.” left out

[4] = test system: Ago2 knockout mouse embryonic fibroblasts; assay: Effect of Ago2 on exosomal enrichment of siRNA from pre-miR-451 structural mimic (qRT-PCR); type: cell-based; details: compared to wild-type cells or Ago2 knockout cells rescued with wild-type or catalytically dead Ago2, FIG. 10
Method: (§8) In these experiments, plasmids including siRNA sequences targeting GFP or TctR integrated in a pre-miR-451 structural mimic were transfected into cells, and the levels of GFP or TetR siRNA in exosomes vs cells (vs. let-7a and miR-16 in exosomes/cells) was measured by qRT-PCR two to three days later. Enrichment of miR-451 derived sequences in exosomes was normalized to 1 for wild-type exosomes.
Testing of the effect of Ago2 on enrichment of siRNA-containing constructs in exosomes using pre-miR-451 structural mimics as described herein was also performed.
as §8, with “TetR” for “TctR”

CO/C1=C\C(C)=C\[C@@H](C)[C@@H](O)[C@@H](C)C/C(C)=C/C=C/[C@H](OC)[C@@H]([C@@H](C)[C@@H](O)[C@H](C)[C@@]2(O)C[C@@H](O)[C@H](C)[C@@H](C(C)C)O2)OC1=O [Bafilomycin A1]
Effect on exosome number [1]: increased exosome number

C/C=C/[C@H]1O[C@@](O)([C@@H](C)[C@H](O)[C@H](C)[C@H]2OC(=O)/C(OC)=C/C(C)=C/[C@@H](C)[C@@H](O)[C@@H](CC)[C@@H](O)[C@H](C)C/C(C)=C/C=C/[C@@H]2OC)C[C@@H](O)[C@@H]1C [concanamycin]
Effect on exosome number [1]: increased exosome number

AUGAACUUCAGGGUCAGCUUGC (listed as RNA, chemistry not fully specified) [fully mature ss, fully mature form of miR-451 produced GFP siRNA, single-stranded 22 nt RNA]
Exosomal enrichment among constructs mimicking processing stages (normalized to let-7a and miR-16, exosomes vs. cells) [2]: most strongly exosome-enriched construct
Exosomal enrichment compared with standard dsRNA siRNA with 3′ overhangs [2]: higher than dsRNA

NAADP-AM
Effect on exosome number [1]: increased exosome number

miR-451: endogenous miRNA strongly enriched in exosomes; generated from pre-miR-451 by Ago2 cleavage, Dicer-independent (AAACCGUUACCAUUACUGAGUUU; expressed or natural sequence; listed as Homo Sapiens)
Enrichment of miR-451 in exosomes in several studies [3]: 10-10000 fold
Ratio of endogenous miRNA in exosomes and exosome-producing cells (in words) (MDA-MB-231; MDA-MB-231, FIG. 3A): highly enriched in exosomes
Enrichment of miR-451 in exosomes/cell (vs. miR-16 and let-7a) (MDA-MB-231; MDA, exosome-depleted or serum-free media): 5600
Enrichment of miR-451 in exosomes compared to its levels in cells, compared to other miRNA (MDA-MB-231; endogenous miRNA, MDA-MB-231, FIG. 3A): up to 308 fold
Enrichment of miR-451 in exosomes/cell (vs. miR-16 and let-7a) (Primary MSC): 702
Enrichment of miR-451 in exosomes/cell (vs. miR-16 and let-7a) (ESC; ESC, exosome-depleted or serum-free media): 3
Enrichment of miR-451 in exosomes (in words) (ESC; human embryonic stem cells, H9 line, FIG. 7): strongly enriched
Enrichment of miR-451 in exosomes/cell (vs. miR-16 and let-7a) (MSC Line): 5293
Enrichment of miR-451 in exosomes/cell (vs. miR-16 and let-7a) (C8D1A): 40
Enrichment of miR-451 in exosomes/cell (vs. miR-16 and let-7a) (JAWSII): 23642
Enrichment of miR-451 in exosomes/cell (vs. miR-16 and let-7a) (BV2): 1887
Enrichment of miR-451 in exosomes/cell (vs. miR-16 and let-7a) (Macrophage): 1280
Enrichment of miR-451 in exosomes/cell (vs. miR-16 and let-7a) (C8D30): 22
Enrichment of miR-451 in exosomes/cell (vs. miR-16 and let-7a) (N2A): 4119
Enrichment of miR-451 in exosomes/cell (vs. miR-16 and let-7a) (C8S): 383
Enrichment of miR-451 in exosomes/cell (vs. miR-16 and let-7a) (NSC34): 73
Enrichment of miR-451 in exosomes/cell (vs. miR-16 and let-7a) (MN1): 44
Endogenous miR-451 in cells or exosomes (MEF; MEF cells, FIG. 3C): undetectable
Enrichment of miR-451 in exosomes/cell (vs. miR-16 and let-7a) (MEF; MEF, exosome-depleted or serum-free media): 68800

B1: miR-106 in the pre-miR-451 structural mimic: pre-miR-451 structural mimic comprising the miR-106 targeting sequence, plasmid-expressed, SEQ ID NO: 7 (nucleic acid)
chain: CUUGGGAAUGGCAAGGAAAAGUGCUUACAGUGCAGGUAUGCACUGUAAGCACUUUCUCUUGCUAUACCCAGA
Enrichment in exosomes of miRNA inserted in the pre-miR-451 backbone (in words) (MDA-MB-231 cells): comparable with miR-451
Effect of pre-miR-451 backbone on levels of inserted miRNA in cells (MEF cells): neglible effects
Enrichment in exosomes of miRNA inserted in the pre-miR-451 backbone (in words) (MEF cells; MEF cells, FIG. 3D): highly enriched

B2: miR-199 in the pre-miR-451 structural mimic: pre-miR-451 structural mimic comprising the miR-199 targeting sequence, plasmid-expressed, SEQ ID NO: 8 (nucleic acid)
chain: CUUGGGAAUGGCAAGGACAGUAGUCUGCACAUUGGUUAAUGUGCAGACUACUGUCUCUUGCUAUACCCAGA
Effect of pre-miR-451 backbone on levels of inserted miRNA in cells (MEF cells): neglible effects

B3: siRNA targeting TetR inserted in a pre-miR-451 structural mimic: pre-miR-451 structural mimic targeting TetR, SEQ ID NO: 20 (nucleic acid)
chain: CUUGGGAAUGGCAAGGUCUUGAUCUUCCAAUACGCAACCGUAUUGGAAGAUCAAGAUCUUGCUAUACCCAGA
modifications: expressed or natural sequence
Enrichment of siRNA in exosomes in Ago2 knockout cells [4]: still enriched in exosomes
